These results are taken from ChEMBL document CHEMBL4270556, “Current progress on antioxidants incorporating the pyrazole core” (Eur J Med Chem, 2018).

In brackets after ≈: the same amount, converted by molar mass.

Experiment [1] is described as follows: Antioxidant activity assessed as DPPH radical scavenging activity at 4 mM relative to control. It is filed as functional. On the technique in general: DPPH is a stable violet radical that fades when it is reduced.
A short description of experiment [2]: Antioxidant activity assessed as inhibition of lipid peroxidation. The experiment is classed as functional.
Experiment [3] is described as follows: Antioxidant activity assessed as hydroxyl radical scavenging activity. It is filed as functional.
The subject of the next experiment is THP-1. Description: Antioxidant activity in human THP1 cells assessed as inhibition of macrophage-mediated LDL oxidation after 24 hrs in presence of CuSO4 by TBARS assay. The experiment is classed as functional, cell-based. Conditions: THP-1, 24 h.
A short description of experiment [4]: Antioxidant activity assessed as inhibition of H2O2-induced lipid peroxidation. It is filed as functional.
For the next experiment, the system named is SH-SY5Y. The experiment in a line: Neuroprotection against rotenone/oligomycin A-induced cell death in human SH-SY5Y cells at 1 uM preincubated for 24 hrs followed by rotenone/oligomycin A addition measured after 24 hrs by MTT assay relative to control. It is filed as functional. Background: Tetrazolium assays rely on reduction of a dye to a coloured formazan, in cell work by metabolically active cells.

Experiment [5] can be described thus: Antioxidant activity assessed as radical scavenging activity. It is filed as functional.

`Oc1c(Cl)cc(Cl)cc1C1Nc2ccccc2-c2cc(-c3ccccc3)nn21` (stereo unspecified): the Activity in experiment [1] was 99%.
Still for that read-out and setting: the same measure for `O=[N+]([O-])c1cccc(C2Nc3ccccc3-c3cc(-c4ccccc4)nn32)c1` (stereo unspecified): 96%.
Broadly, the IC50 is the midpoint of a concentration-inhibition curve. With `Cc1ccc(-c2cc(C(F)(F)F)nn2-c2ccc(S(N)(=O)=O)cc2)cc1` [CELECOXIB], the IC50 in experiment [2] amounted to 1990 µM; in experiment [3], 1970 µM.
For `CC(C)(Sc1cc(C(C)(C)C)c(O)c(C(C)(C)C)c1)Sc1cc(C(C)(C)C)c(O)c(C(C)(C)C)c1` [PROBUCOL], in the experiment on THP-1, the IC50 came out at 0.6 µM.
As for `CC1=NN(C(=O)c2ccccc2O)C(O)(C(F)(F)F)C1` (stereo unspecified), the IC50 in experiment [4] is less than 15 µM.
Consider `Cc1[nH]nc2c1C(c1cccnc1)C(C#N)=C(N)O2` (stereo unspecified), for which, in the experiment with SH-SY5Y, the Activity came out at 57.9%.
On to `CC(C)(C)c1cc(C2=NNC(c3cc(C(C)(C)C)c(O)c(C(C)(C)C)c3)C2)cc(C(C)(C)C)c1O` (stereo unspecified), for which, in the experiment on THP-1, the IC50 was determined as 0.1 µM.
In the case of `Nc1[nH]nc(NCc2ccccc2)c1-c1ccc([N+](=O)[O-])cc1`, the half-maximal inhibitory concentration (IC50) in experiment [5] was found to be 800 µg/mL (≈ 2590 µM).
As for `Oc1cc(O)c2c(c1)O[C@H](c1ccc(O)c(O)c1)[C@@H](O)C2` [CIANIDANOL], the IC50 was found to be 1440 µM in experiment [2] and 2930 µM in experiment [3].
